From patent publication US20230310542A1, “EPIGENETIC MODIFIERS TO TREAT RETINAL DEGENERATIONS” (priority 2022, published 2023)

Key:
WT mice = conditions: TCP PN9 till PN24
Protocol: (§1) All inhibitors were diluted in 0.9% bacteriostatic sodium chloride (saline).
(§2) Retinas were fixed in 4% paraformaldehyde overnight at 4° C., washed in PBS, incubated in 5% sucrose/PBS for 30 min and then cryopreserved in 20% sucrose/PBS overnight at 4° C. Retinas were embedded in 2:1 mix of 20% sucrose and OCT (Sakura Finetek Torrance, CA) and stored at −80° C. Blocks with tissue samples were sectioned to 7-10 μm on a Cryostat Microtome HM550 (Thermo Fisher Scientific) and stored at −20° C. Antigen retrieval was performed by incubating the slides in 10 mM sodium citrate pH 6 for 30 min at 80° C. Double labeling immunohistochemistry was performed using fluorescent Alexa Fluor-conjugated secondary antibodies diluted 1:800 (Invitrogen, Carlsbad, California). Primary antibodies were diluted as follow: anti-H3K4me2 1:600, anti-H3K9me2 1:600, anti-RHO 1:50, anti-OPN1SW 1:400, anti-GFAP 1:1000, anti-IBA1 1:450 (AifI gene). […] The acquisition parameters were maintained constant for each set of experiments. Fluorescence intensity was assessed using ImageJ software (Bethesda, MD).

rd10 = conditions: TCP PN9 till PN24
Protocol: Retinas were fixed in 4% paraformaldehyde overnight at 4° C., washed in PBS, incubated in 5% sucrose/PBS for 30 min and then cryopreserved in 20% sucrose/PBS overnight at 4° C. Retinas were embedded in 2:1 mix of 20% sucrose and OCT (Sakura Finetek Torrance, CA) and stored at −80° C. Blocks with tissue samples were sectioned to 7-10 μm on a Cryostat Microtome HM550 (Thermo Fisher Scientific) and stored at −20° C. TUNEL assay was carried out using the In situ Cell death detection kit, Fluorescein from Roche (Germany) according to manufacturer's instruction.

rod nuclei = conditions: WT + TCP, PN24
Protocol: as §2
The number of heterochromatin foci in rod nuclei was calculated to estimate the level of rod photoreceptor maturation in retinas of animals treated with LSD1 inhibitors (FIG. 10B).

WT mice retina = test: RT-PCR retinal gene expression, WT mice; format: in vivo, mouse
Protocol: (§3) Whole retinas were isolated from animals by removing the sclera and most of the retinal pigmented epithelium (RPE) layer under PBS. The right eye retinas from each animal were taken for RNA extraction, cDNA preparation and RT-PCR. Immediately after isolation, tissue was flash frozen in liquid nitrogen and stored at −80° C. Left eye retinas from each animal were subjected to fixation, cryopreservation, sectioning, and immunofluorescence staining. RNA extraction and purification followed the manufacturer's protocol from RNeasy Mini Kit and RNA shredder (Qiagen). […] Primers purchased from Integrated DNA Technologies (IDT). For quantitative real-time PCR we used 2× iQ-SYBR Green PCR supermix from Bio-Rad. Samples in triplicate were run on an iQ5 Multicolor Real Time PCR Detection System (Bio-Rad). The relative expression level for each gene was calculated by the 2-ΔΔCt method and normalized to GAPDH.

H3K4me2, H3K9me2 = test: Anti-H3K4me2 and anti-H3K9me2 Western blot of WT retina; format: in vivo, mouse; conditions: WT mice treated PN9 till PN24
Protocol: Both retinas from one animal were flash frozen together in liquid nitrogen and stored at −80° C. Samples for SDS-PAGE were prepared by resuspended retinas in 50 μl PBS. Laemmli sample buffer was added, samples were boiled for 10 min, resolved on Criterion TGX Precast Gel AnyKD (Bio-Rad), transferred to nitrocellulose membrane, and immunoblotted with antibodies anti-H3K9me2 or anti-H3K4me2 diluted 1:5000; anti-ACTB diluted 1:10000; anti-PDE6B (1:500). Secondary goat anti-rabbit/mouse HRP (Jackson Immuno-Research Laboratory, West Grove, PA) was diluted 1:5000. An ECL western blot detection system (Thermo Fisher Scientific) was used to visualize the bound of the primary antibody.

GFAP, IBA1 = test: Immunofluorescence labeling of GFAP and IBA1 in retina sections; format: in vivo, mouse; conditions: rd10, treated PN9 till PN24; levels remained above WT
Protocol: Fluorescence intensity was assessed using ImageJ software (Bethesda, MD).

rd10 mice = test: Rod photoreceptor preservation in rd10 mice (photoreceptor rows in ONL, immunofluorescence); format: in vivo, mouse
Protocol: as §1, §2

rd10 mice retina = test: RT-PCR retinal gene expression, rd10 mice; format: in vivo, mouse
Protocol: as §3

rd1 mice = conditions: previous studies; cited from earlier work
RGC = conditions: previous study; cited from earlier work
RP = conditions: previous studies, cited from earlier work; for protective effect on RP: non-selective HDAC inhibitors

In the case of `N[C@@H]1C[C@H]1c1ccccc1` (relative stereo) [TCP, trans-2-Phenylcyclopropylamine], the ONL thickness (WT mice) is reported as “significantly increased”, the “number of rows of rods” value (WT mice) is reported as “did not change” and the “dying cells by TUNEL staining vs control” value (rd10) is reported as “no significant difference”. The “rod nuclei with 3 foci” value (rod nuclei; WT saline 2%) was 7%, the “rod nuclei with two foci” value (rod nuclei; WT saline 43%) was 51% and the “rod nuclei with one focus” value (rod nuclei; WT saline 55%) was 42%. For the same compound, the “expression of rod photoreceptor genes” value (WT mice retina; WT mice treated PN9 till PN24) was “no changes”, the “expression of transcription factors of retina development and maturation” value (WT mice retina; WT retinas, treated PN9 till PN24) was “slightly increased expression” and the “global levels of H3K4me2” value (H3K4me2, H3K9me2) was “did not change significantly”. The “global levels of H3K9me2” value (H3K4me2, H3K9me2) was “No changes”, the “IBA1 labeling (microglia)” value (GFAP, IBA1) was “decreased” and the “rows of photoreceptors remaining in the ONL at PN24” value (rd10 mice; TCP 10 mg/kg i.p. daily PN9 till PN24) was 7 rows. The “expression of rod photoreceptor genes relative to GAPDH” value (rd10 mice retina; treated PN9 till PN24, assayed PN24, vs saline) was “increased expression of almost all rod genes” and the “expression of cone genes Thrb or Gnat2” value (rd10 mice retina; treated PN9 till PN24 vs saline) was “slightly up-regulated”.
For `Nc1nccc2c1ncn2[C@@H]1C=C(CO)[C@@H](O)[C@H]1O` [DZNep, 3-deazaneplanocin A], the “retinal degeneration / photoreceptor loss in rd1 mouse” value (rd1 mice) is listed as “delays in retinal degeneration”.
In the case of `Nc1cc(F)ccc1NC(=O)/C=C/c1cnn(C/C=C/c2ccccc2)c1` [RGFP966], the RGC death (RGC) is given as “protected against RGC death”.
In the case of `CC(/C=C/C(=O)NO)=C\[C@@H](C)C(=O)c1ccc(N(C)C)cc1` [TSA], the “protective effect on RP” value (RP) is listed as “some protective effect”.
For `CCCC(CCC)C(=O)O` [VPA], the “protective effect on RP” value (RP) is given as “some protective effect” and the “outcome as therapeutic agent for retinal degeneration” value (RP) is given as “mixed results”.
In the case of `C/C=C1\NC(=O)[C@H]2CSSCC/C=C/[C@H](CC(=O)N[C@H](C(C)C)C(=O)N2)OC(=O)[C@H](C(C)C)NC1=O` [romidepsin], the “rows of photoreceptor remaining in the ONL at PN24” value (rd10 mice; romidepsin 0.2 mg/kg i.p. daily PN9 till PN24, saline control 2-3 rows) is reported as 8 rows.
For `CCCC(=O)[O-].[Na+]` [sodium butyrate], the “protective effect on RP” value (RP) is listed as “some protective effect”.
